Test results taken from patent publication US7001910B1, “Thiazolidinedione derivatives as antidiabetic agents” (Vita-Invest S.A., priority 1999, dated 2006).

How the values were obtained:
[1] = system: genetically diabetic C57 BL male db/db mice; assay: Plasma glucose reduction in genetically diabetic db/db mice after 5 days of oral treatment; type: in vivo; settings: Mus musculus, 120 h, 5 consecutive days, plasma glucose reduction vs basal level before treatment; for inhibition in vivo at 1 mg/kg: 1 mg/kg p.o.; for inhibition in vivo at 10 mg/kg: 10 mg/kg p.o.; for inhibition in vivo at 5 mg/kg: 5 mg/kg p.o.
Protocol: The pharmacological effect of the compounds is assessed in genetically diabetic C57 BL male db/db 9–11 weeks old mice, as well as in control C57 BL db/+ animals of the same strain and age. […] In each experimental group, 8–10 animals are used, which are treated with different doses of the compounds: 1 mg/kg, 5 mg/kg, 10 mg/kg or 25 mg/kg orally during 5 consecutive days.
In the day 0 of the experiment, blood samples are collected in heparinized tubes by punction of the retroorbital vein. Plasma is separated and the levels of basal glucose and insulin are quantified.
After concluding the treatments, blood samples of each animal are collected again and plasmatic post-treatment glucose and insulin levels are quantified.
The determination of glucose is carried out by means of an enzymatic method that converts glucose into glucose 6-phosphate, a reaction coupled with the reduction of nicotinamide-dinucleotide phosphate (NADP) to NADPH by the action of glucose-6-P-dehydrogenase. The NADPH reduces the iodonitrotetrazolium, which is quantified spectrophotometrically. The absorbency at 520 nm is proportional to the concentration of glucose, ref: Randox GI, 2623 (Bergmeyer H. U., Bernt E., Schmidt F. H., Stork H. In Methods of Enzymatic Analysis, Academic Press: London and New York 1974, p. 1196).
The results are expressed as the reduction percent with regard to the basal levels determined before the beginning of the treatment.

[2] = system: genetically diabetic C57 BL male db/db mice; assay: as above; type: in vivo; settings: Mus musculus, 120 h, 100 mg/kg p.o., 5 consecutive days, plasma glucose reduction vs basal level before treatment

## COc1cc(N(C)CCOc2ccc(CC3SC(=O)NC3=O)cc2)nc(OC)n1 (centres unmarked) [Example 4, 5-(4-{2-{(2,6-Dimethoxypyrimidin-4-yl)-methyl-amino]-ethoxy}-benzyl)-thiazolidine-2,4-dione]
[1]
  inhibition in vivo at 1 mg/kg: 53%

## CN(C)c1cc(N(C)CCOc2ccc(CC3SC(=O)NC3=O)cc2)ncn1 (centres unmarked) [Example 21, 5-(4-{2-[(6-Dimethylaminopyrimidin-4-yl)-methylamino]-ethoxy}-benzyl)-thiazolidine-2,4-dione]
[1]; 25 mg/kg p.o.
  inhibition in vivo at 25 mg/kg: 36%

## Cc1c(C)c2c(c(C)c1O)CCC(C)(COc1ccc(CC3SC(=O)NC3=O)cc1)O2 (centres unmarked) [Troglitazone]
[2]
  inhibition in vivo at 100 mg/kg: 38%

## CN(CCOc1ccc(CC2SC(=O)NC2=O)cc1)c1ncnc2nc[nH]c12 (centres unmarked) [Example 7, 5-(4-{2-[Methyl-(7H-purin-6-yl)-amino]-ethoxy}-benzyl)-thiazolidine-2,4-dione]
[1]
  inhibition in vivo at 10 mg/kg: 47%

## COc1cc(N(C)CCOc2ccc(CC3SC(=O)NC3=O)cc2)ncn1 (centres unmarked) [Example 17, 5-(4-{2-[(6-Methoxypyrimidin-4-yl)-methylamino]-ethoxy}-benzyl)-thiazolidine-2,4-dione]
[1]
  inhibition in vivo at 1 mg/kg: 48%

## CN(CCOc1ccc(CC2SC(=O)NC2=O)cc1)c1cc(Cl)ncn1 (centres unmarked) [Example 14, 5-(4-{2-[(6-chloropyrimidin-4-yl)-methylamino]-ethoxy}-benzyl)-thiazolidine-2,4-dione]
[1]
  inhibition in vivo at 1 mg/kg: 51%

## CN(CCOc1ccc(CC2SC(=O)NC2=O)cc1)c1ncnc2c1ncn2C1OC(CO)C(O)C1O (centres unmarked) [Example 11]
[1]
  inhibition in vivo at 10 mg/kg: 30%

## CN(CCOc1ccc(CC2SC(=O)NC2=O)cc1)c1ccncn1 (centres unmarked) [Example 20, 5-{4-[2-(Methylpyrimidin-4-yl-amino)ethoxy]benzyl}-thiazolidine-2,4-dione]
[1]
  inhibition in vivo at 5 mg/kg: 21%

## CN(CCOc1ccc(CC2SC(=O)NC2=O)cc1)c1cc(O)ncn1 (centres unmarked) [Example 22, 5-(4-{2-[(6-Hydroxypyrimidin-4-yl)-methylamino]-ethoxy}-benzyl)-thiazolidine-2,4-dione]
[1]
  inhibition in vivo at 5 mg/kg: 22%

## CN(CCOc1ccc(CC2SC(=O)NC2=O)cc1)c1ncnc2c1ncn2C (centres unmarked) [Example 12, 5-(4-{2-[Methyl-(9-methyl-9H-purin-6-yl)-amino]-ethoxy}-benzyl)-thiazolidine-2,4-dione]
[1]
  inhibition in vivo at 10 mg/kg: 25%

## CN(CCOc1ccc(CC2SC(=O)NC2=O)cc1)c1cc(Cl)nc(N)n1 (centres unmarked) [Example 3, 5-(4-{2-[(2-amino-6-chloropyrimidin-4-yl)-methyl-amino]-ethoxy}-benzyl)-thiazolidine-2,4-dione]
[1]
  inhibition in vivo at 1 mg/kg: 47%
